In the experiment the target is T1, mouse VISTA (mVISTA) (Mus musculus, UniProt Q9D659).
T1 construct: expressed in transfected cells; host or cells: Human embryonic kidney 293T cells
T1 sequence (Q9D659 33-308): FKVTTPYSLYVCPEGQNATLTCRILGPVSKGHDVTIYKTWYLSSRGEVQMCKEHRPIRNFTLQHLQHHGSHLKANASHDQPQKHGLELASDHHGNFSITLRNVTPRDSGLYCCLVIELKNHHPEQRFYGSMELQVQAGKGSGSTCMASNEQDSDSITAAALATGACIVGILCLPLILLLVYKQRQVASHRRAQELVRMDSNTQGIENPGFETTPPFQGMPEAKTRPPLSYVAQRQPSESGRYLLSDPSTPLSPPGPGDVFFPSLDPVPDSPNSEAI
The experiment can be described thus: Cell-Based Binding High-Content Assay For mVISTA (HC CBA mVISTA). The settings on record: read-out: HC CBA mVISTA IC50. In outline:
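This high-content binding assay uses HEK293T cells expressing murine VISTA, measuring displacement of 2 nM biotinylated peptide by fluorescent streptavidin imaging. IC50 values come from four-parameter logistic fitting.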

Starred links: 1 amine or outer side, 2 acyl side, 3 side chain; linkers in the order of their positions; H or OH if unused. Positions of bridges follow the written chain, without caps; N, C: chain ends. Non-standard residues stand in square brackets, D forms with d. Residues, ends and D or L forms follow the SMILES beside them. ξ: configuration not given here. Morpholine(3S-CO) = O=C(O)[C@@H]1COCCN1; Phe(3-Me) = Cc1cccc(C[C@H](N)C(=O)O)c1; βAsp = O=C(O)[C@H](CC(=O)[*:2])N[*:1]; Pro(4ξ-F) = O=C(O)[C@@H]1CC(F)CN1; Ahp(2) = CCCCC[C@H](N)C(=O)O; NMeNle = CCCC[C@H](NC)C(=O)O; Tle = CC(C)(C)[C@H](N)C(=O)O; Pip = O=C(O)[C@@H]1CCCCN1; NHexGly = CCCCCCNCC(=O)O; Nle = CCCC[C@H](N)C(=O)O; Aun = NCCCCCCCCCCC(=O)O; Aze = O=C(O)[C@@H]1CCN1; AEEA = NCCOCCOCC(=O)O

As for `CCCCCCN1CC(=O)N[C@@H](Cc2ccc(O)cc2)C(=O)N[C@@H](CCCC)C(=O)N[C@@H](CC(N)=O)C(=O)N[C@@H](CCCNC(=N)N)C(=O)N(C)[C@@H](CCCC)C(=O)N[C@@H](CCCCC)C(=O)N2CCCC[C@H]2C(=O)N[C@@H](Cc2ccccc2)C(=O)N[C@@H](CO)C(=O)N[C@H](C(=O)N[C@@H](CC(=O)NCCOCCOCC(=O)NCCCCCCCCCCC(=O)O)C(=O)O)CSCC(=O)N[C@@H](Cc2ccccc2)C(=O)N[C@@H](Cc2c[nH]c3ccccc23)C(=O)N[C@@H](CC(=O)O)C1=O` [Example 2185] ({CH2CO}-FWD[NHexGly]Y[Nle]NR[NMeNle][Ahp(2)][Pip]FSC[βAsp][AEEA][Aun]-OH; thioether N-14), the IC50 was 50.1 nM. The figure for `CCCCCCN1CC(=O)N[C@@H](Cc2ccc(O)cc2)C(=O)N[C@@H](CCCC)C(=O)N[C@@H](CC(N)=O)C(=O)N[C@@H](CCCNC(=N)N)C(=O)N(C)[C@@H](CCCC)C(=O)N[C@@H](CCCCC)C(=O)N2CCCC[C@H]2C(=O)N[C@@H](C(C)C)C(=O)N[C@@H](CO)C(=O)N[C@H](C(=O)N[C@@H](CC(=O)NCCOCCOCC(=O)NCCCCCCCCCCC(=O)O)C(=O)O)CSCC(=O)N[C@@H](Cc2ccccc2)C(=O)N[C@@H](Cc2c[nH]c3ccccc23)C(=O)N[C@@H](CC(=O)O)C1=O` [Example 2186] ({CH2CO}-FWD[NHexGly]Y[Nle]NR[NMeNle][Ahp(2)][Pip]VSC[βAsp][AEEA][Aun]-OH; thioether N-14) is 24.4 nM. For `CCCCCCN1CC(=O)N[C@@H](Cc2ccc(O)cc2)C(=O)N[C@@H](CCCC)C(=O)N[C@@H](CC(N)=O)C(=O)N[C@@H](CCCNC(=N)N)C(=O)N(C)[C@@H](CCCC)C(=O)N[C@@H](CCCCC)C(=O)N2CC[C@H]2C(=O)N[C@@H](C(C)(C)C)C(=O)N[C@@H](CO)C(=O)N[C@H](C(=O)N[C@@H](CC(=O)NCCOCCOCC(=O)NCCCCCCCCCCC(=O)O)C(=O)O)CSCC(=O)N[C@@H](Cc2ccccc2)C(=O)N[C@@H](Cc2c[nH]c3ccccc23)C(=O)N[C@@H](CC(=O)O)C1=O` [Example 2187] ({CH2CO}-FWD[NHexGly]Y[Nle]NR[NMeNle][Ahp(2)][Aze][Tle]SC[βAsp][AEEA][Aun]-OH; thioether N-14), the IC50 is 13.3 nM. The value for `CCCCCCN1CC(=O)N[C@@H](Cc2ccc(O)cc2)C(=O)N[C@@H](CCCC)C(=O)N[C@@H](CC(N)=O)C(=O)N[C@@H](CCCNC(=N)N)C(=O)N(C)[C@@H](CCCC)C(=O)N[C@@H](CCCCC)C(=O)N2CC[C@H]2C(=O)N[C@@H](Cc2ccccc2)C(=O)N[C@@H](CO)C(=O)N[C@H](C(=O)N[C@@H](CC(=O)NCCOCCOCC(=O)NCCCCCCCCCCC(=O)O)C(=O)O)CSCC(=O)N[C@@H](Cc2ccccc2)C(=O)N[C@@H](Cc2c[nH]c3ccccc23)C(=O)N[C@@H](CC(=O)O)C1=O` [Example 2188] ({CH2CO}-FWD[NHexGly]Y[Nle]NR[NMeNle][Ahp(2)][Aze]FSC[βAsp][AEEA][Aun]-OH; thioether N-14) was 47.3 nM; that for `CCCCCCN1CC(=O)N[C@@H](Cc2ccc(O)cc2)C(=O)N[C@@H](CCCC)C(=O)N[C@@H](CC(N)=O)C(=O)N[C@@H](CCCNC(=N)N)C(=O)N(C)[C@@H](CCCC)C(=O)N[C@@H](CCCCC)C(=O)N2CCC[C@H]2C(=O)N[C@@H](C(C)(C)C)C(=O)N[C@@H](CO)C(=O)N[C@H](C(=O)N[C@@H](CC(=O)NCCOCCOCC(=O)NCCCCCCCCCCC(=O)O)C(=O)O)CSCC(=O)N[C@@H](Cc2ccccc2)C(=O)N[C@@H](Cc2cccc(C)c2)C(=O)N[C@@H](CC(=O)O)C1=O` [Example 2189] ({CH2CO}-F[Phe(3-Me)]D[NHexGly]Y[Nle]NR[NMeNle][Ahp(2)]P[Tle]SC[βAsp][AEEA][Aun]-OH; thioether N-14) was 29 nM; that for `CCCCCCN1CC(=O)N[C@@H](Cc2ccc(O)cc2)C(=O)N[C@@H](CCCC)C(=O)N[C@@H](CC(N)=O)C(=O)N[C@@H](CCCNC(=N)N)C(=O)N(C)[C@@H](CCCC)C(=O)N[C@@H](CCCCC)C(=O)N2CCC[C@H]2C(=O)N[C@@H](C(C)(C)C)C(=O)N[C@@H](CO)C(=O)N[C@H](C(=O)N[C@@H](CC(=O)NCCOCCOCC(=O)NCCCCCCCCCCC(=O)O)C(=O)O)CSCC(=O)N[C@@H](Cc2ccccc2)C(=O)N[C@@H](Cc2ccc(O)cc2)C(=O)N[C@@H](CC(=O)O)C1=O` [Example 2190] ({CH2CO}-FYD[NHexGly]Y[Nle]NR[NMeNle][Ahp(2)]P[Tle]SC[βAsp][AEEA][Aun]-OH; thioether N-14) was 24.4 nM.

With `CCCCCCN1CC(=O)N[C@@H](Cc2ccc(O)cc2)C(=O)N[C@@H](CCCC)C(=O)N[C@@H](CC(N)=O)C(=O)N[C@@H](CCCNC(=N)N)C(=O)N(C)[C@@H](CCCC)C(=O)N[C@@H](CCCCC)C(=O)N2CCC[C@H]2C(=O)N[C@@H](C(C)(C)C)C(=O)N[C@@H](CO)C(=O)N[C@H](C(=O)N[C@@H](CC(=O)NCCOCCOCC(=O)NCCCCCCCCCCC(=O)O)C(=O)O)CSCC(=O)N[C@@H](Cc2ccccc2)C(=O)N[C@@H](Cc2c[nH]c3ccccc23)C(=O)N[C@@H](CC(=O)O)C1=O` [Example 2191] ({CH2CO}-FWD[NHexGly]Y[Nle]NR[NMeNle][Ahp(2)]P[Tle]SC[βAsp][AEEA][Aun]-OH; thioether N-14), the IC50 came to 19.7 nM. For `CCCCCCN1CC(=O)N[C@@H](Cc2ccc(O)cc2)C(=O)N[C@@H](CCCC)C(=O)N[C@@H](CC(N)=O)C(=O)N[C@@H](CCCNC(=N)N)C(=O)N(C)[C@@H](CCCC)C(=O)N[C@@H](CCCCC)C(=O)N2CCOC[C@H]2C(=O)N[C@@H](C(C)(C)C)C(=O)N[C@@H](CO)C(=O)N[C@H](C(=O)N[C@@H](CC(=O)NCCOCCOCC(=O)NCCCCCCCCCCC(=O)O)C(=O)O)CSCC(=O)N[C@@H](Cc2ccccc2)C(=O)N[C@@H](Cc2c[nH]c3ccccc23)C(=O)N[C@@H](CC(=O)O)C1=O` [Example 2192] ({CH2CO}-FWD[NHexGly]Y[Nle]NR[NMeNle][Ahp(2)][Morpholine(3S-CO)][Tle]SC[βAsp][AEEA][Aun]-OH; thioether N-14), the IC50 worked out at 18.6 nM. In the case of `CCCCCCN1CC(=O)N[C@@H](Cc2ccc(O)cc2)C(=O)N[C@@H](CCCC)C(=O)N[C@@H](CC(N)=O)C(=O)N[C@@H](CCCNC(=N)N)C(=O)N(C)[C@@H](CCCC)C(=O)N[C@@H](CCCCC)C(=O)N2CCOC[C@H]2C(=O)N[C@@H](C(C)C)C(=O)N[C@@H](CO)C(=O)N[C@H](C(=O)N[C@@H](CC(=O)NCCOCCOCC(=O)NCCCCCCCCCCC(=O)O)C(=O)O)CSCC(=O)N[C@@H](Cc2ccccc2)C(=O)N[C@@H](Cc2c[nH]c3ccccc23)C(=O)N[C@@H](CC(=O)O)C1=O` [Example 2193] ({CH2CO}-FWD[NHexGly]Y[Nle]NR[NMeNle][Ahp(2)][Morpholine(3S-CO)]VSC[βAsp][AEEA][Aun]-OH; thioether N-14), the IC50 was 16.1 nM. As to `CCCCCCN1CC(=O)N[C@@H](Cc2ccc(O)cc2)C(=O)N[C@@H](CCCC)C(=O)N[C@@H](CC(N)=O)C(=O)N[C@@H](CCCNC(=N)N)C(=O)N(C)[C@@H](CCCC)C(=O)N[C@@H](CCCCC)C(=O)N2CC(F)C[C@H]2C(=O)N[C@@H](C(C)(C)C)C(=O)N[C@@H](CO)C(=O)N[C@H](C(=O)N[C@@H](CC(=O)NCCOCCOCC(=O)NCCCCCCCCCCC(=O)O)C(=O)O)CSCC(=O)N[C@@H](Cc2ccccc2)C(=O)N[C@@H](Cc2c[nH]c3ccccc23)C(=O)N[C@@H](CC(=O)O)C1=O` (stereo partly shown) [Example 2194] ({CH2CO}-FWD[NHexGly]Y[Nle]NR[NMeNle][Ahp(2)][Pro(4ξ-F)][Tle]SC[βAsp][AEEA][Aun]-OH; thioether N-14), the IC50 is 38.6 nM.

Usually IC50 stands for the midpoint of a concentration-inhibition curve.

The record behind these values is patent US20240218022A1, “ANTI-VISTA MACROCYCLIC PEPTIDES AND COMPOSITIONS” (BRISTOL-MYERS SQUIBB COMPANY, priority 2022, published 2024).
